Results published in patent US20260207623A1, “USE OF ESTETROL IN HEPATICALLY IMPAIRED PATIENTS” (ESTETRA SRL, priority 2022, published 2026).

Assays:
Format in all cases: in vivo, human
healthy women = test: Example 2 section G: adverse events after single and 14-day multiple oral doses of Estetrol monohydrate/Drospirenone 15 mg/3 mg and 30 mg/6 mg; conditions: single dose then once daily for 14 days
Method: The following treatments were administered to healthy women (between 15-50 years inclusive) according to the randomization code. • Placebo (n=16); • Group 15 mg: a single oral dose of 15 mg Estetrol monohydrate/3 mg Drospirenone (n=10) followed, after a washout of 14 days, by multiple oral doses of 15 mg Estetrol monohydrate/3 mg Drospirenone (n=10) once daily for 14 days; • Group 30 mg: a single oral dose of 30 mg Estetrol monohydrate/6 mg Drospirenone (n=10), followed, after a washout of 14 days, by multiple oral doses of 30 mg Estetrol monohydrate/6 mg Drospirenone (n=10) once daily for 14 days.
Adverse events were recorded from first admission until completion of the follow-up visit (between 37 to 42 days after first day of treatment).

post-menopausal women [1] = test: Example 3: severity of moderate to severe VMS; conditions: 15 mg and 20 mg vs placebo; weeks 4 and 12 (FIG. 12)
Method: A further clinical study was designed to evaluate the effect of 15 or 20 mg estetrol (E4) monohydrate, or placebo on the severity and frequency of vasomotor symptoms (VMS) and the safety of E4 20 mg. The inclusion and exclusion criteria as described for Example 2 were maintained for the present Example (i.e. Example 3).
• 1. Mean change in weekly frequency of moderate to severe vasomotor symptoms (VMS) from Baseline to Week 4 (Efficacy Study Part) [Time Frame: Baseline and Week 4]: • The weekly frequency of moderate to severe VMS at Baseline and Week 4 is defined as the total number (sum) of all recorded moderate to severe VMS experienced during the last 7 consecutive days prior randomization for Baseline and at Week 4. Mean change=mean weekly frequency at Week 4-mean weekly frequency at Baseline. • 2. Mean change in weekly frequency of moderate to severe vasomotor symptoms (VMS) from Baseline to Week 12 (Efficacy Study Part) [Time Frame: Baseline and Week 12] • The weekly frequency of moderate to severe VMS at Baseline and Week 12 is defined as the total number (sum) of all recorded moderate to severe VMS experienced during the last 7 consecutive days prior randomization for Baseline and at Week 12. Mean change=mean weekly frequency at Week 12-mean weekly frequency at Baseline. • 3. […]

post-menopausal women [2] = test: Example 2: patients leaving the study
Excerpt: 3. Patients Leaving the Study

[3] = 15 mg Estetrol monohydrate/3 mg Drospirenone
[4] = 30 mg Estetrol monohydrate/6 mg Drospirenone

## C[C@]12CC[C@@H]3c4ccc(O)cc4CC[C@H]3[C@@H]1[C@@H](O)[C@@H](O)[C@@H]2O [E4 monohydrate, estetrol monohydrate]
Healthy women; [3]
  TEAEs by relationship to study drug, Related, subjects reporting one or more AE: 50%
  TEAEs by relationship to study drug, Total, subjects reporting one or more AE: 80%
  TEAEs by relationship to study drug, Unrelated, subjects reporting one or more AE: 50%
Healthy women; [4]
  TEAEs by relationship to study drug, Related, subjects reporting one or more AE: 50%
  TEAEs by relationship to study drug, Total, subjects reporting one or more AE: 70%
  TEAEs by relationship to study drug, Unrelated, subjects reporting one or more AE: 50%
post-menopausal women [1]
  severity of moderate to severe VMS: significantly decreased
post-menopausal women [2]; 2.5 mg daily
  Number of patients leaving the study: 9
post-menopausal women [2]; 5 mg daily
  Number of patients leaving the study: 11
post-menopausal women [2]; 10 mg daily
  Number of patients leaving the study: 15
post-menopausal women [2]; 15 mg daily
  Number of patients leaving the study: 8
